11 compounds from patent publication US9988381B2, “Five-member-heterocycle fused pyridine compounds, method of producing the same, and use thereof” (SHANGHAI INSTITUTE OF MATERIA MEDICA, CHINESE ACADEMY OF …, priority 2013, dated 2018) can be followed below.

Read-outs that look alike come from different tables or passages of the source.

The target in data set [1] is T1, c-Met kinase domain recombinant protein (Homo sapiens, UniProt P08581).
T1 construct: 50 μL diluted solution of c-Met kinase domain recombinant protein in reaction buffer was added to initiate the reaction
Kind of data set: biochemical. The conditions noted are these: read-out: Inhibition rate at 10 μM (%). Put shortly:
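Recombinant c-Met kinase domain phosphorylated immobilised Poly(Glu,Tyr)4:1 for 1 h at 37 °C in 50 mM HEPES pH 7.4, 50 mM MgCl2, 0.5 mM MnCl2, 0.2 mM Na3VO4, 1 mM DTT with ATP. Product measured by anti-phosphotyrosine PY99 ELISA (HRP, 490 nm), giving percent inhibition; ATP-free wells served as control.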

Data set [2] addresses T1, c-Met kinase domain recombinant protein. The experiment in a line: biochemical. The settings on record: for inhibition at 0.1 µM: read-out: Average inhibition rate at 0.1 μM (%); for inhibition at 1 µM: read-out: Average inhibition rate at 1 μM (%); for inhibition at 10 µM: read-out: Average inhibition rate at 10 μM (%). The essentials: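 IC50 came from a four-parameter fit of inhibition rates measured by anti-phosphotyrosine (PY99/HRP) ELISA at 490 nm. The reaction ran 1 hour at 37° C with 5 μM ATP, c-Met kinase domain protein and Poly(Glu,Tyr)4:1-coated wells, in HEPES pH 7.4 buffer containing MgCl2, MnCl2, Na3VO4 and DTT.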

The next data set deals with MKN45 cell. Kind of data set: Test III: growth inhibition of gastric tumor cell MKN45 (SRB). The data set is classed as cell-based. The conditions noted are these: Homo sapiens; for inhibition at 0.2 µM: MKN-45, read-out: Cell proliferation inhibition rate at 200 nM (%), MKN45, 200 nM. Here is the method:
(§1) Assays on the growth inhibition of the compounds against gastric tumor cell MKN45, non-small cell carcinoma EBC-1 cell (both are MET persistent activated cell lines due to MET gene amplification, and are Met dependent tumor cell lines, MKN45 cell was purchased from JCRB, Japan, EBC-1 cell was purchased from ATCC, USA) were detected using sulforhodamine B (SRB) staining. […] After incubation with compound for 72 hours, the incubation was terminated, adherent cells were retained and medium was discarded, 10% (w/v) trichloroacetic acid (100 μL pre well) was added, the cells were fixed at 4° C. for 1 hour, then rinsed with distilled water for 5 times, after dried at room temperature, SRB solution (4 mg/mL, dissolved in 1% glacial acetic acid) was added at 100 μL per well, incubated and stained at room temperature for 15 minutes, then rinsed with 1% glacial acetic acid for 5 times to remove any unbound SRB, dried at room temperature, then 10 mM Tris solution was added at 100 μL per well, the optical density (OD) value at 515 nm was measured using VERSMax microplate reader.
(§2) Experiments were conducted in duplicates. IC50 value was calculated by fitting the data for a four parameter fit using inhibition curve, the results are shown below in Table 2.

Data set [3] deals with human lung cancer EBC-1 xenograft. Kind of data set: Test IV: human non-small cell lung cancer EBC-1 xenograft growth in nude mice. The data set is classed as in vivo. Here is the method:
EBC-1 cells were implanted subcutaneously in the right axilla of nude mice at 5×10^6 cells per mouse, xenograft developed thereby was passaged in nude mice for 3 generations prior to use. Tumor tissue at rapid growth phase was taken, minced under sterile condition into pieces of about 1.5 mm^3, then implanted subcutaneously in the right axilla of nude mice.
Xenografted tumor diameters were measured twice per week, and body weights of the mice were measured at the same time. Tumor Volume (TV) was calculated by the following equation: TV=1/2×a×b^2, wherein a, b refers to the length and width, respectively. Based on the measurement, Relative Tumor Volume (RTV) was calculated by the following equation: RTV=Vt/V0, wherein V0 is the tumor volume measured when divided for administration (i.e., do), Vt is the tumor volume measured at each timepoint.
(In xenograft studies the graft and the host belong to different species.)

A further data set deals with EBC-1 cell. Kind of data set: Test III: growth inhibition of non-small cell carcinoma EBC-1 cell (SRB). The data set is classed as cell-based. The settings on record: Homo sapiens, EBC-1, 72 h; for inhibition at 0.2 µM: read-out: Cell proliferation inhibition rate at 200 nM (%); for inhibition at 1 µM: read-out: Cell proliferation inhibition rate at 1 μM (%). Here is the method:
as §1, §2

Setting [4] is: MKN-45, 72 h, read-out: Cell proliferation inhibition rate at 1 μM (%).
Where [5] appears, read: MKN-45, read-out: Cell proliferation inhibition rate at 1 μM (%), MKN45, 1 μM, 72 hours.

For orientation: IC50 means the concentration that inhibits the measured activity by half.

T1 sequence (P08581 1078-1345 limits assumed): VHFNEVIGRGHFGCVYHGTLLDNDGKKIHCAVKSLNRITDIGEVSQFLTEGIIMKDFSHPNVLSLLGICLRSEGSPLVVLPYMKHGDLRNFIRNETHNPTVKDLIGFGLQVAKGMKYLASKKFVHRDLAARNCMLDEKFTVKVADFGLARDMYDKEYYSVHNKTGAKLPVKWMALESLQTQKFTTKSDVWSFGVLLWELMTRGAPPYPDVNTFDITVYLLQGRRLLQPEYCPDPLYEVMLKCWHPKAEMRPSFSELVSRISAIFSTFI

On to `Cn1cc(-c2cnc3cnn(S(=O)(=O)c4cnc5ccc(-c6ccsc6)cn45)c3c2)cn1` [Example 72, 1-{[6-(3-thiophene)-imidazo[1,2-a]pyridine]-3-sulfonyl}-6-[(1-methyl)-4-pyrazolyl]-1-H-pyrazolo[4,3-b]pyridine], for which the inhibition at 10 µM in data set [1] came to 80.9%. Also, in data set [2], the IC50 amounted to 0.04 ± 0.04 nM, the inhibition at 0.1 µM stood at 70.1%, the inhibition at 1 µM is 80.3% and the inhibition at 10 µM is 76.5%. In addition, in the data set on MKN45 cell (setting [4]), the inhibition at 1 µM is 72.8%.

As for `CN(C)C(=O)c1ccc(-c2ccc3ncc(S(=O)(=O)n4ncc5ncc(-c6cnn(C)c6)cc54)n3c2)cc1` [Example 73, 1-{[6-(4-dimethylaminocarbonylphenyl)-imidazo[1,2-a]pyridine]-3-sulfonyl}-6-[(1-methyl)-4-pyrazolyl]-1-H-pyrazolo[4,3-b]pyridine], the inhibition at 10 µM in data set [1] turned out to be 59.6%. Further, in data set [2], the inhibition at 0.1 µM was 78%, the inhibition at 1 µM was 72.8% and the inhibition at 10 µM came to 76.9%. Also, the inhibition at 1 µM with MKN45 cell (setting [5]) amounted to 14.4%.

In the case of `Cn1cc(-c2cnc3cnn(S(=O)(=O)c4cnc5ccc(-c6cnn(C7CCN(C(=O)OC(C)(C)C)CC7)c6)cn45)c3c2)cn1` [Example 76, 1-{(6-{{1-[(1-t-butoxycarbonyl)-4-piperidinyl]}-4-pyrazolyl}-imidazo[1,2-a]pyridine)-3-sulfonyl}-6-[(1-methyl)-4-pyrazolyl]-1-H-pyrazolo[4,3-b]pyridine], the inhibition at 10 µM in data set [1] is more than 76.3%. In data set [2], the inhibition at 0.1 µM amounted to 78%, the inhibition at 1 µM is 75.5% and the inhibition at 10 µM stood at 78.3%. In addition, the inhibition at 1 µM in the data set with MKN45 cell (setting [5]) worked out at 14.9%.

As to `Cn1cc(-c2cnc3cnn(S(=O)(=O)c4cnc5ccc(-c6ccc(F)cc6)cn45)c3c2)cn1` [Example 81, 1-{[6-(4-fluorophenyl)-imidazo[1,2-a]pyridine]-3-sulfonyl}-6-[(1-methyl)-4-pyrazolyl]-1-H-pyrazolo[4,3-b]pyridine], the inhibition at 10 µM in data set [1] is more than 68.7%; in data set [2], 80.2%. Moreover, the inhibition at 0.1 µM in data set [2] amounted to 72.9%. In addition, the inhibition at 1 µM came to 73.6% in data set [2] and 24.7% in the data set on MKN45 cell (setting [5]).

For `Cc1ccc(-c2ccc3ncc(S(=O)(=O)n4ncc5ncc(-c6cnn(C)c6)cc54)n3c2)cc1` [Example 90, 1-{[6-(4-methylphenyl)-imidazo[1,2-a]pyridine]-3-sulfonyl}-6-[(1-methyl)-4-pyrazolyl]-1-H-pyrazolo[4,3-b]pyridine], in data set [1], the inhibition at 10 µM was more than 72.2%. Besides, in data set [2], the inhibition at 0.1 µM came out at 69%, the inhibition at 1 µM was found to be 83% and the inhibition at 10 µM came out at 81.1%. For the same compound, the inhibition at 1 µM in the data set on MKN45 cell (setting [5]) came to 17.6%.

With `Cn1cc(-c2cnc3cnn(S(=O)(=O)c4cnc5ccc(-c6ccc(CN7CCOCC7)cc6)cn45)c3c2)cn1` [Example 91, 1-{[6-(4-morpholinomethylphenyl)-imidazo[1,2-a]pyridine]-3-sulfonyl}-6-[(1-methyl)-4-pyrazolyl]-1-H-pyrazolo[4,3-b]pyridine], in data set [1], the inhibition at 10 µM was more than 69.4%. In data set [2], the inhibition at 0.1 µM turned out to be 77.3%, the inhibition at 1 µM was found to be 85.5% and the inhibition at 10 µM amounted to 74.1%. Also, in the data set on MKN45 cell (setting [5]), the inhibition at 1 µM is 72.9%.

Turning to `COc1ccccc1-c1ccc2ncc(S(=O)(=O)n3ncc4ncc(-c5cnn(C)c5)cc43)n2c1` [Example 97, 1-{[6-(2-methoxyphenyl)-imidazo[1,2-a]pyridine]-3-sulfonyl}-6-[(1-methyl)-4-pyrazolyl]-1-H-pyrazolo[4,3-b]pyridine], the inhibition at 10 µM in data set [1] was more than 63.8%. Besides, in data set [2], the IC50 stood at 0.5 ± 0.1 nM, the inhibition at 0.1 µM came out at 51.7%, the inhibition at 1 µM was found to be 62.7% and the inhibition at 10 µM was determined as 65.5%. The inhibition at 1 µM in the data set with MKN45 cell (setting [4]) came out at 67.8%.

As for `Cn1cc(-c2cnc3cnn(S(=O)(=O)c4cnc5ccc(-c6ccc(F)nc6)cn45)c3c2)cn1` [Example 99, 1-{[6-(2-fluoro-5-pyridinyl)-imidazo[1,2-a]pyridine]-3-sulfonyl}-6-[(1-methyl)-4-pyrazolyl]-1-H-pyrazolo[4,3-b]pyridine], in data set [1], the inhibition at 10 µM was more than 73.3%. Besides, in data set [2], the inhibition at 0.1 µM turned out to be 55.5%, the inhibition at 1 µM amounted to 66.2% and the inhibition at 10 µM was found to be 71.8%. Besides, the inhibition at 0.2 µM in the data set on MKN45 cell (72 hours) turned out to be 48.5%. Further, in the data set with MKN45 cell (setting [5]), the inhibition at 1 µM stood at 67.9%.

As for `Cn1cc(-c2cnc3cnn(S(=O)(=O)c4cnc5ccc(-c6cccc(C#N)c6)cn45)c3c2)cn1` [Example 100, 1-{[6-(3-cyanophenyl)-imidazo[1,2-a]pyridine]-3-sulfonyl}-6-[(1-methyl)-4-pyrazolyl]-1-H-pyrazolo[4,3-b]pyridine], the figures for the inhibition at 10 µM in data set [1] and in data set [2] were more than 60.4% and 85.4%, respectively. For the same compound, the inhibition at 0.1 µM in data set [2] amounted to 83.7%. In addition, the inhibition at 1 µM was determined as 87.3% in data set [2] and 66.6% in the data set with MKN45 cell (setting [5]). Besides, the inhibition at 0.2 µM in the data set with MKN45 cell (72 hours) came out at 63.8%.

As for `CN1CCN(C(=O)c2ccc(-c3cnc4cnn(S(=O)(=O)c5cnc6ccc(-c7cnn(C)c7)cn56)c4c3)cc2)CC1` [Example 142, 1-{(6-[(1-methyl)-4-pyrazolyl]-imidazo[1,2-a]pyridine)-3-sulfonyl}-6-[4-(4-methylpiperazine-1-carbonyl)phenyl]-1-H-pyrazolo[4,3-b]pyridine], in data set [3] (50 mg/kg po qd/21), the “TV (mm^3, mean ± SD) d21” value was 259 ± 421 ^ mm^3 and the “Weight (g) d21” value is recorded as 21.0 g. Moreover, in data set [3] (50 mg/kg po qd/21, d21), the “GI (%)” value worked out at 90.65% and the “RTV (mean ± SD)” value amounted to 2.23 ± 3.89. Besides, the “T/C (%)” value in data set [3] (50 mg/kg po qd/21, day 21) amounted to 16.91%. Moreover, in data set [3] (100 mg/kg po qd/21), the “TV (mm^3, mean ± SD) d21” value came out at 21 ± 34 mm^3 and the “Weight (g) d21” value turned out to be 20.9 g. In addition, in data set [3] (100 mg/kg po qd/21, d21), the “GI (%)” value is given as 106.70% and the “RTV (mean ± SD)” value is 0.14 ± 0.21. Besides, in data set [3] (100 mg/kg po qd/21, day 21), the “T/C (%)” value is reported as 1.05%. Besides, in data set [2], the IC50 worked out at 0.5 ± 0.1 nM, the inhibition at 0.1 µM is 89.4% and the inhibition at 1 µM is 91.3%. Moreover, in the data set on EBC-1 cell, the inhibition at 0.2 µM turned out to be 92.1% and the inhibition at 1 µM turned out to be 92.6%.

Consider `CC(C)N1CCC(n2cc(-c3cnc4cnn(S(=O)(=O)c5cnc6ccc(-c7cnn(C)c7)cn56)c4c3)cn2)CC1` [Example 145, 1-{(6-[(1-methyl)-4-pyrazolyl]-imidazo[1,2-a]pyridine)-3-sulfonyl}-6-{(1-[(1-isopropyl)-4-piperidinyl]}-4-pyrazolyl}-1-H-pyrazolo[4,3-b]pyridine], for which, in data set [3] (50 mg/kg po qd/21), the “TV (mm^3, mean ± SD) d21” value is listed as 36 ± 49 mm^3 and the “Weight (g) d21” value was determined as 19.9 g. Moreover, in data set [3] (50 mg/kg po qd/21, d21), the “GI (%)” value stood at 106.14% and the “RTV (mean ± SD)” value amounted to 0.31 ± 0.50. Further, the “T/C (%)” value in data set [3] (50 mg/kg po qd/21, day 21) came to 2.36%. For the same compound, in data set [3] (100 mg/kg po qd/21), the “TV (mm^3, mean ± SD) d21” value is on record as 8 ± 13 mm^3 and the “Weight (g) d21” value amounted to 19.1 g. In data set [3] (100 mg/kg po qd/21, d21), the “GI (%)” value is 107.77% and the “RTV (mean ± SD)” value is given as 0.05 ± 0.09. Also, the “T/C (%)” value in data set [3] (100 mg/kg po qd/21, day 21) is reported as 0.40%. In data set [2], the IC50 is 0.6 ± 0.1 nM, the inhibition at 0.1 µM turned out to be 90.6% and the inhibition at 1 µM came out at 87.1%. Further, in the data set on EBC-1 cell, the inhibition at 0.2 µM is 92.4% and the inhibition at 1 µM came to 92.8%.
